From patent US11099176B2 (priority 2015, dated 2021)

Key:
Assay type in all cases: binding
[1] = system: Marinobacter sp. msLacBP6 variant 187C, F68M, SEQ ID NO: 50, Acrylodan conjugate; experiment: Fluorescence titration of conjugate (affinity tuning); parameters: key to appKd (alanine): nb: no binding
[2] = system: Marinobacter sp. msLacBP6 variant 187C, F68L, SEQ ID NO: 49, Badan conjugate; experiment: as above; parameters: key to appKd (alanine): nb: no binding
[3] = system: Marinobacter sp. msLacBP6 variant 187C, F68M, SEQ ID NO: 50, Badan conjugate; experiment: as above; parameters: key to appKd (alanine): nb: no binding
[4] = system: Marinobacter sp. msLacBP6 187C mutants (variants of Table 7); experiment: Affinity summary of msLacBP6 187C affinity-tuning mutants; details: all mutants
Source text: In the PCS we mutated F68 (F98 in ttLacBP1) and D220 (D250 in ttLacBP1). […] It could therefore be considered part of a secondary complementary surface layer (SCS). In the interface we mutated L70 (L100 in ttLacBP1), which is located at the periphery of the lactate-binding site, and forms a contact from the N- to the C-terminal domain across the inter-domain interface.
Both PCS and SCS mutations perturbed the spectral shapes of the lactate-mediated responses. […] These affinity-tuned sensors therefore provide a suitable set for clinical chemistry applications.

[5] = system: Marinobacter sp. msLacBP6 conjugates (variants of Table 5); experiment: Affinity summary of msLacBP6 single-cysteine conjugates
[6] = system: Marinobacter sp. msLacBP6 variant 187C, D220E, SEQ ID NO: 56, Badan conjugate; experiment: Fluorescence titration of conjugate (affinity tuning); parameters: key to appKd (alanine): nb: no binding
[7] = system: Marinobacter sp. msLacBP6 variant 187C, D220E, SEQ ID NO: 56, Acrylodan conjugate; experiment: as above; parameters: key to appKd (alanine): nb: no binding
[8] = system: Marinobacter sp. msLacBP6 variant 187C, L70I, SEQ ID NO: 52, Acrylodan conjugate; experiment: as above; parameters: key to appKd (alanine): nb: no binding
[9] = system: Marinobacter sp. msLacBP6 variant 187C, L70I, SEQ ID NO: 52, Badan conjugate; experiment: as above; parameters: key to appKd (alanine): nb: no binding
[10] = system: Marinobacter sp. msLacBP6 variant 187C, F68L, SEQ ID NO: 49, Acrylodan conjugate; experiment: as above; parameters: key to appKd (alanine): nb: no binding

## C[C@H](N)C(=O)O [L-alanine]
[1]
  appKd (alanine): n/b
[2]
  appKd (alanine): n/b
[3]
  appKd (alanine): n/b
[4]
  binding to L-alanine: None of the mutants bound L-alanine
[5]
  binding to L-alanine: no binding
[6]
  appKd (alanine): n/b
[7]
  appKd (alanine): n/b
[8]
  appKd (alanine): n/b
[9]
  appKd (alanine): n/b
[10]
  appKd (alanine): n/b
